{"source": "patent US20080152640A1", "about": "“Means and Methods For Treating a Disease Which is Associated With an Excess Transport of Hyaluronan Across a Lipid Bilayer” (priority 2003, published 2008)", "key": {"human skin fibroblasts": {"system": "human skin fibroblasts", "assay": "Proliferation of human skin fibroblasts (cell counting)", "assay_type": "cell-based", "details": "Homo sapiens, Skin fibroblast, read-out: Proliferation (IC50)", "description": "Human fibroblasts were grown in […] in Dulbecco's modified Eagles medium supplemented with streptomycin/penicillin (100 units of each/ml), kanamycin (100 units/ml) and 10% foetal calf serum. Cell proliferation was determined by cell counting after trypsinisation three days after seeding."}, "MRP7": {"target": "T1, MRP7 (Homo sapiens, UniProt Q5T3U5)", "T1 sequence (Q5T3U5 1-1492)": "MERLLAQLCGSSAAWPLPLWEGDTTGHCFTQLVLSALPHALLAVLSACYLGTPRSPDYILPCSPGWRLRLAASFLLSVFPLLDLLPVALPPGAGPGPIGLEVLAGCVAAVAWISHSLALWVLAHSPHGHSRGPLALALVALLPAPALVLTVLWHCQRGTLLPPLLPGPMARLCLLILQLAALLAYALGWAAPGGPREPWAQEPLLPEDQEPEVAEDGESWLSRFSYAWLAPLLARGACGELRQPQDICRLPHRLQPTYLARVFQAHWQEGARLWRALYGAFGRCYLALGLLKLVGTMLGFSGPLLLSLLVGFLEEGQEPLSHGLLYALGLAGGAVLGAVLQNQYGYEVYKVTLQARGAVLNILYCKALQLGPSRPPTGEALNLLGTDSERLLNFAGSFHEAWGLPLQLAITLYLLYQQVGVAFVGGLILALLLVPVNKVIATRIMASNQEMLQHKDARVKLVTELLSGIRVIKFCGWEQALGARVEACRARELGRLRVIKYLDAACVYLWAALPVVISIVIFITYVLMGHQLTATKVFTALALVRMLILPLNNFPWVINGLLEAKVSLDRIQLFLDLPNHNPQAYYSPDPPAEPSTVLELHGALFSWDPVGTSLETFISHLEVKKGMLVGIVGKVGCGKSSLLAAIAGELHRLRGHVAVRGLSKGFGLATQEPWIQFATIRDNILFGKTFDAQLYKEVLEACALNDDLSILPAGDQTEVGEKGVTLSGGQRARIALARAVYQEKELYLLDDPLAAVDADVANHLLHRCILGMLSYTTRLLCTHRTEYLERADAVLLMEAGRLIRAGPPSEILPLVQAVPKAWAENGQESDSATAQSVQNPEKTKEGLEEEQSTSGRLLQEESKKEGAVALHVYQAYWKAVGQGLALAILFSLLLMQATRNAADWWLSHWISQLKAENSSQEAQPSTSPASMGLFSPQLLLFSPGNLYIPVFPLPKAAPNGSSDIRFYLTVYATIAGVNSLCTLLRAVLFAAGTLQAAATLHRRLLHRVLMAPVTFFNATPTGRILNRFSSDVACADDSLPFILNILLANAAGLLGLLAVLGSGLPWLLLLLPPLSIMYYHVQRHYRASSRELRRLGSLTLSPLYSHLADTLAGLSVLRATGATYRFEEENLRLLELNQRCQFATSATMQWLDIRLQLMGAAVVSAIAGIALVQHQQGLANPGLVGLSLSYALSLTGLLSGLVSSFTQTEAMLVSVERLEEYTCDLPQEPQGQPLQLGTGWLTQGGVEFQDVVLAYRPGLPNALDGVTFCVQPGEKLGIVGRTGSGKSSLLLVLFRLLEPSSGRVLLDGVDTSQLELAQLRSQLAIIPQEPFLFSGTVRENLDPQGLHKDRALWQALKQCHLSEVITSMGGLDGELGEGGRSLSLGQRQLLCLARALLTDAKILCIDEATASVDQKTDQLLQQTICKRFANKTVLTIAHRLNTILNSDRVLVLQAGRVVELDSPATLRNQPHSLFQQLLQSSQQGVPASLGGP", "details": "cited from earlier work"}, "MDR1": {"target": "MDR1 (Homo sapiens, UniProt P08183)", "sequence (P08183 whole entry)": "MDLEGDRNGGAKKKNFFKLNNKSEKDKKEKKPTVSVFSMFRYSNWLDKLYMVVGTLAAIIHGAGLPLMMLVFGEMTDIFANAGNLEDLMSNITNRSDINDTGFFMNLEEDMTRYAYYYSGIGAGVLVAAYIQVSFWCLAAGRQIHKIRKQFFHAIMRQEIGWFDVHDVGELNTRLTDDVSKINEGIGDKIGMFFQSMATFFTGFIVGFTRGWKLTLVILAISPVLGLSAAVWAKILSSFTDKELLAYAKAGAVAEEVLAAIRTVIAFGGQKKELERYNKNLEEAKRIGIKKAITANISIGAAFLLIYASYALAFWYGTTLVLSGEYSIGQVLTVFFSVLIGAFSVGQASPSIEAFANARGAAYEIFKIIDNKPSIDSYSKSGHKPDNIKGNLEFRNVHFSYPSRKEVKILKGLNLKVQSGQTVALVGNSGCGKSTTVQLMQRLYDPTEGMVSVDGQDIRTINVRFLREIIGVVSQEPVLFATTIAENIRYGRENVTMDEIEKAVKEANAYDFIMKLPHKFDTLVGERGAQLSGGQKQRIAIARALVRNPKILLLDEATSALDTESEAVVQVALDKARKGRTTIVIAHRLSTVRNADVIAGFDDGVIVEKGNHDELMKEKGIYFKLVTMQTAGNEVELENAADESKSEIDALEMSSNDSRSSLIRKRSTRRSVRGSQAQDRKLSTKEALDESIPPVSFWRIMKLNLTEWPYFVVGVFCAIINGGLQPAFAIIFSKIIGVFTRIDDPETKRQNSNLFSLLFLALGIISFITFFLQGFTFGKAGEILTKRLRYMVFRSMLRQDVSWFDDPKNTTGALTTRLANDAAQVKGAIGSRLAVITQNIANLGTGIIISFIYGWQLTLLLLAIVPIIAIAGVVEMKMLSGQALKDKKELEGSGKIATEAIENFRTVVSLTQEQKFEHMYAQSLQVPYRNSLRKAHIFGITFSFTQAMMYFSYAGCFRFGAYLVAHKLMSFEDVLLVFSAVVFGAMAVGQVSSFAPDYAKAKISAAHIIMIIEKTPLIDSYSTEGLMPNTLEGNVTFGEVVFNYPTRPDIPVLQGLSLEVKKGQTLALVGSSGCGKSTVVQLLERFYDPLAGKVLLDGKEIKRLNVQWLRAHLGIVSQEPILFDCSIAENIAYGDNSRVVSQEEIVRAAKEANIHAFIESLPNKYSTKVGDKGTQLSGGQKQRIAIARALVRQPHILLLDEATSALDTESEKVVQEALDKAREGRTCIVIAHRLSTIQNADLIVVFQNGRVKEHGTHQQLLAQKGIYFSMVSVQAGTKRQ", "details": "cited from earlier work"}}, "note": "Like-named read-outs stand apart in the source and are kept apart here.", "data": [{"compound": "CCCN(CCC)S(=O)(=O)c1ccc(C(=O)O)cc1", "note": "[Probenecid]", "values": [{"measurement": "IC50", "setting": "human skin fibroblasts", "value": 200, "unit": "µM"}, {"measurement": "inhibition of 17β-glucuronosyl-estradiol export by MRP7", "setting": "MRP7", "value": "weak inhibitor"}, {"measurement": "published inhibitory concentrations IC50 or Ki, MRP7", "setting": "MRP7", "value": "weak"}, {"measurement": "IC50", "setting": "MDR1; read-out: IC50 for MDR1", "value": "> 2000", "unit": "µM"}, {"measurement": "IC50", "setting": "MDR1; read-out: published inhibitory concentrations IC50 or Ki, MDR1", "value": "> 2000", "unit": "µM"}]}]}
